Here are results for one substance from PMC3852661, “Structural basis of SUFU–GLI interaction in human Hedgehog signalling regulation” (Acta Crystallographica Section D: Biological Crystallography, 2013).

What all share (format): binding, human
Test [1] concerns MBP-SUFU-SH. As to the kind of experiment: Thermal stability assay with peptide, MBP-SUFU-SH. The conditions noted are these: 44 µM peptide, 2.2 µM protein, SYPRO Orange, pH 7.0; triplicate. The method, then: Recombinant MBP-SUFU proteins were diluted to 2.6 µM in 50 mM Na HEPES pH 7.0, 50 mM NaCl, 5 mM β-mercaptoethanol; the peptides GLI1p and GLI1p-SH (Supplementary Table S1b), synthesized by Dr W. Mawby (University of Bristol), were dissolved in the same buffer. Proteins were spun at 14 000g for 20 min at 4°C before adding SYPRO Orange (Molecular Probes) to a final concentration of 6×. Reaction volumes of 25 µl were prepared in 96-well PCR plates with 2.2 µM protein/SYPRO Orange solution and, where applicable, 44 µM peptide. Plates were sealed with optical tape, heated from 20 to 90°C in 12 s 0.2°C steps in an iCycler and fluorescence was detected using an excitation wavelength of 470 nm and an emission wavelength of 570 nm.
Figure 4 The SUFU IDR has distinct structural properties. (a) Thermal stability assays of MBP-SUFU constructs performed in triplicate, either alone (blue) or with GLI1p (red) or GLI1p-SH (green). […] (b) Microscale thermophoresis experiments with FAM-GLI1p and titrated MBP-SUFU constructs, showing an average of three separate experiments. All proteins have similar affinity, but the thermophoretic properties of FAM-GLI1p are modified differently between the MBP-SUFU-FL construct and the MBP-SUFU-Δ and MBP-SUFU-SH constructs, reflecting a difference in shape.

For test [2], the system named is MBP-SUFU-FL, mutation of Asp159. As to the kind of experiment: Microscale thermophoresis, MBP-SUFU-FL mutated at Asp159. The conditions noted are these: mutation of Asp159 in MBP-SUFU-FL, data not shown. The method, then: (§1) A 5-FAM-labelled peptide (FAM-GLI1p) comprising residues 115–131 of GLI1 (Supplementary Table S1b) was synthesized by Pepceuticals Ltd. A titration series of each recombinant protein was prepared by serial 1:1 dilutions in MST buffer (50 mM Tris–HCl pH 7.6, 150 mM NaCl, 10 mM MgCl2, 0.05% Tween-20) and mixed in a 1:1 ratio with FAM-GLI1p to give final concentrations of 50 nM FAM-GLI1p with MBP-SUFU constructs in the ranges 14.2–29 070 and 54–110 500 nM. Reactions were aspirated into glass capillaries and the thermophoretic movement of FAM-GLI1p was monitored using a Monolith NT.115 instrument (NanoTemper Technologies; Wienken et al., 2010[▶]), with a laser on for 30 s and off for 5 s and a laser power/voltage of 20% for MBP-SUFU-FL and the MBP-SUFU-FL mutants, 40% for MBP-SUFU-Δ and 80% for MBP-SUFU-SH. Fluorescence was measured before laser heating (F Cold) and after 30 s of laser-on time (F Hot). The normalized fluorescence F Hot/F Cold reflects the concentration ratio of labelled molecules. F Hot/F Cold was plotted directly and multiplied by a factor of […], yielding a relative change in fluorescence per thousand. K d was calculated from three independent thermophoresis measurements using NanoTemper software (NanoTemper Technologies). […]
Background: In MST a laser heats a spot of the sample, and binding alters the fluorescence response.

For test [3], the system named is MBP-SUFU-FL, mutation of Tyr147. As to the kind of experiment: Microscale thermophoresis, MBP-SUFU-FL mutated at Tyr147. The conditions noted are these: mutation of Tyr147 in MBP-SUFU-FL, data not shown. The method, then: as §1

MBP-SUFU-SH, sequence (Q9UMX1 32-278 limits assumed): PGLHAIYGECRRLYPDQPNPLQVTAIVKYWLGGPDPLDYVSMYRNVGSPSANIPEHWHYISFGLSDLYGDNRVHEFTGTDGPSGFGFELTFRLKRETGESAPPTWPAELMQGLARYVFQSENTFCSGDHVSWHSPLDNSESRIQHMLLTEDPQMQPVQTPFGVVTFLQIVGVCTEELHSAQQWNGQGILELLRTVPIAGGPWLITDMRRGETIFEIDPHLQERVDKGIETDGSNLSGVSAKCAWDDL
MBP-SUFU-SH, sequence (Q9UMX1 361-483 limits assumed): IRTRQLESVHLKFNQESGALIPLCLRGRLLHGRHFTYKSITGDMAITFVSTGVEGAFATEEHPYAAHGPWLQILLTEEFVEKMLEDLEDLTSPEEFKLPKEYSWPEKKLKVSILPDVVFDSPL

As to “GLI1p: human GLI1-derived peptide; residues 115–131, containing the highly conserved SYGH motif (TSPGGSYGHLSIGTMSP)”, the binding result in test [1] is “All constructs bind to GLI1p”. Moreover, the detectable binding entry in test [2] and in test [3] was “abolished detectable binding” throughout.
